Experimental data from US4150153A, “1-(Naphthylethyl)imidazole derivatives” (Syntex (U.S.A.) Inc., priority 1977, dated 1979).

Columns and labels:
[1] = lethalities in mice after a single intraperitoneal dose; settings: mouse, in vivo, ip, single dose intraperitoneally, lethalities determined after five days, doses 1-1,000 mg/kg
Method: Groups of 3 male ICR derived mice weighing 18-24 grams were given a single dose of compound intraperitoneally. The following doses were employed: 1, 3, 10, 30, 100, 300 or 1,000 mg/kg. After five days lethalities were determined.

[2] = test system: male Hilltop ICR-derived mice; experiment: Maximal Electroshock Test in Mice; format: in vivo; settings: intraperitoneally 15 minutes prior to transcorneal maximal electroshock (50 milliamps, 0.2 seconds), antagonizing tonic extension, in parentheses 95% confidence limits; for ED50: Mus musculus, ip, 0.25 h
Method: Maximal Electroshock Test in Mice
This test was performed in the standard manner, essentially as described by Swinyard et al., J. Pharm.
Groups of 10 male Hilltop ICR-derived mice weighing 20-30 grams were dosed intraperitoneally with a solution or suspension of drug in saline 15 minutes prior to a transcorneal maximal electroshock (50 milliamps, 0.2 seconds).

Row | Compound | LD50 at 120 h [1] | ED50 [2] | ED50 (95% confidence limits) [2]
1 | O=C(Cn1ccnc1)c1cccc2ccccc12 [1-(1-naphthoylmethyl)imidazole] | 100 to 300 mg/kg | ~60 mg/kg | –
2 | O=C(Cn1ccnc1)c1ccc2ccccc2c1 [1-(2-naphthoylmethyl)imidazole] | 100 to 300 mg/kg | 23 mg/kg | –
3 | CC1CSC(Cn2ccnc2)(c2ccc3ccccc3c2)S1.Cl (stereo not drawn) [1-[2,2-(1,2-propylenedithio)-2-(2-naphthyl)ethyl]imidazole hydrochloride] | – | – | 65 (55-73) mg/kg
4 | c1ccc2cc(C3(Cn4ccnc4)OCCCO3)ccc2c1 [1-[2,2-(1,3-propylenedioxy)-2-(2-naphthyl)ethyl]imidazole] | – | 17 mg/kg | –
5 | CC1CCOC(Cn2ccnc2)(c2ccc3ccccc3c2)O1 (stereo not drawn) [1-[2,2-(1-methyl-1,3-propylenedioxy)-2-(2-naphthyl)ethyl]imidazole] | – | 19 mg/kg | –
6 | CC1(C)COC(Cn2ccnc2)(c2ccc3ccccc3c2)OC1 [1-[2,2-(2,2-dimethyl-1,3-propylenedioxy)-2-(2-naphthyl)ethyl]imidazole] | – | 26 mg/kg | –
7 | CCSC(Cn1ccnc1)(SCC)c1ccc2ccccc2c1 [1-[2,2-bis(ethylthio)-2-(2-naphthyl)ethyl]imidazole] | – | 35 mg/kg | –
8 | CSC(Cn1ccnc1)(SC)c1ccc2ccccc2c1 [1-[2,2-bis(methylthio)-2-(2-naphthyl)ethyl]imidazole] | – | 32 mg/kg | –
9 | c1ccc2c(C3(Cn4ccnc4)OCCO3)cccc2c1 [1-[2,2-ethylenedioxy-2-(1-naphthyl)ethyl]imidazole] | – | 19 mg/kg | –
10 | c1ccc2cc(C3(Cn4ccnc4)OCCO3)ccc2c1 [1-[2,2-ethylenedioxy-2-(2-naphthyl)ethyl]imidazole] | 100 to 300 mg/kg | 12 mg/kg | –
11 | c1ccc2cc(C3(Cn4ccnc4)SCCS3)ccc2c1 [1-[2,2-ethylenedithio-2-(2-naphthyl)ethyl]imidazole] | – | 26 mg/kg | –
12 | OC(Cn1ccnc1)c1cccc2ccccc12 (stereo not drawn) [1-[2-hydroxy-2-(1-naphthyl)ethyl]imidazole] | 300 to 1000 mg/kg | 37 mg/kg | –
13 | OC(Cn1ccnc1)c1ccc2ccccc2c1 (stereo not drawn) [1-[2-hydroxy-2-(2-naphthyl)ethyl]imidazole] | 300 to 1000 mg/kg | 74 mg/kg | –
